“Also recorded” adds a separate entry of the source. Read-outs that look alike come from different tables or passages of the source.
Tests used:
BRAF (wild-type) [1] = molecular target: T1, BRAF (wild-type) (Homo sapiens, UniProt P15056); assay: wild-type BRAF enzymatic activity, Z'-Lyte kinase assay; format: biochemical; conditions: wild-type BRAF kinase; read-out: BRAF^wt enzymatic IC50
T1 construct: purchased Invitrogen
Protocol: (§1) The experiments were performed according to the instructions of the manufacturer. […] For each assay, 10 μl kinase reactions were added to 384-well plate, mixed thoroughly, and incubated for 1 hour at room temperature. Then, a 5 μl development solution was added to each well and the plate was incubated for another 1 h at room temperature. Then, a 5 μl stop reagent was loaded to stop the reaction. For the control setting, a 5 μl phospho-peptide solution instead of kinase/peptide mixture was used as 100% phosphorylation control. […] The plate was measured on an EnVision Multilabel Reader (Perkin-Elmer). Curve fitting and data presentations were performed using GraphPad Prism, version 5.0. Every experiment was repeated at least two times.

BRAF (wild-type) [2] = assay: as above; format: biochemical; conditions: ratio of enzymatic IC50
Protocol: as §1

P-ERK in B16 cells = assay: Immunoblot analysis of P-ERK in B16 cells; format: cell-based; conditions: B16 mouse melanoma cells with wild type BRAF, 24 h
Description: Supplementary Figure 2. 14b inhibit the phosphorylation of ERK in B16 cells.

HCT116 cells = assay: Antiproliferation CCK-8 assay, HCT116; format: cell-based; conditions: Homo sapiens, HCT-116; CCK-8, 72 h, HCT116 (wild-type BRAF); means of three independent experiments; read-out: Cellular IC50 HCT116
Protocol: HCT116 and HT-29 cells were obtained from the Shanghai Cell Bank (Type Culture Collection (TCC), Chinese Academy of Sciences) and cultured in DMEM (10–013-CVR, corning) supplemented with 10% fetal bovine serum (04-001-1A, BI), 1% penicillin/streptomycin (03-031-1B, BI).
The cells in the logarithmic phase were placed in 96-well plates (∼3000 cells/well) in a complete medium. After incubation overnight, the cells were exposed to the corresponding compounds or vehicle control at the indicated concentration for a further 72 h. Cell proliferation was evaluated using Cell Counting Kit 8 (CCK8, CK04, Dojindo Laboratories, Kumamoto, Japan). OD450 and OD650 were determined using a microplate reader. Absorbance rate (A) for each well was calculated as OD450 −OD650. […] Each IC50 value is expressed as mean ± SD. As is the absorbance rate of the test compound well, Ac is the absorbance rate of the well without either the cell or test compound, and Ab is the absorbance rate of the well with the cell and vehicle control.

[3] = test system: Ac-histone H3, Ac-α-tubulin, p-ERK in HT-29 cells; assay: Western blot analysis of HDAC and RAF pathway in HT-29 cells; format: cell-based, human
Protocol: FIGURE 3 Characterization of dual inhibition of HDAC and RAF pathway. Western blot analysis of 14b in HCT116 cells (A) and in HT-29 cells (B). Cells were treated with 0 μM, 0.12 μM, 0.37 μM, 1.1 μM, 3.3 μM, and 10 μM of drugs and incubated for 6 h. The cell lysis was subjected to Western blot analysis.
The cells were treated with various concentrations of 14b for 6 h. Then, the cells were lysed using 1×SDS sample lysis buffer (CST recommended) with protease and phosphatase inhibitors. Cell lysates were loaded and electrophoresed onto 8–12% SDS-PAGE gel, and then the separated proteins were transferred to a PVDF film. The film was blocked with 5% BSA (Sigma-Aldrich, St. Louis, MO, United States) in a TBS solution containing 0.5% Tween-20 for 4 h at room temperature, then incubated with the corresponding primary antibody (1:1000–1:200) overnight at 4°C. After washing with TBST, HRP-conjugated secondary antibody was incubated for 2 h. The protein signals were visualized by the ECL Western Blotting Detection Kit (Thermo Scientific, Grand Island, NY, United States), and detected with Amersham Imager 600 system (GE, Boston, MA, United States).

HDAC1 = molecular target: T2, HDAC1 (Homo sapiens, UniProt Q13547); assay: HDAC1 fluorescent-based enzymatic activity assay; format: biochemical
T2 construct: purchased BPS Bioscience
Protocol: The purified recombinant Human HDACs and their corresponding substrates were purchased from BPS Bioscience (BPS Bioscience Inc., United States). The assays were carried out in a 384-well format using the BPS fluorescent–based HDAC activity assay according to the manufacturer’s protocol. In brief, […] of the HDAC reaction mixture was composed of HDAC assay buffer, […] BSA, serial diluted test compounds, appropriate concentration of HDACs, and […] fluorogenic substrate, the mixture was incubated at 37°C for 60 min, and then stopped by the addition of developer containing trypsin and TSA. After 20 min of incubation, the fluorescence was detected at the excitation wavelength of 360 nm and the emission wavelength of 460 nm using the EnVision Multilabel Reader (PerkinElmer Inc., United States). The analytical software, GraphPad Prism 5.0 (GraphPad Software, Inc., United States) was used to generate IC50 value via non-linear regression analysis.

T2 sequence (Q13547 whole entry): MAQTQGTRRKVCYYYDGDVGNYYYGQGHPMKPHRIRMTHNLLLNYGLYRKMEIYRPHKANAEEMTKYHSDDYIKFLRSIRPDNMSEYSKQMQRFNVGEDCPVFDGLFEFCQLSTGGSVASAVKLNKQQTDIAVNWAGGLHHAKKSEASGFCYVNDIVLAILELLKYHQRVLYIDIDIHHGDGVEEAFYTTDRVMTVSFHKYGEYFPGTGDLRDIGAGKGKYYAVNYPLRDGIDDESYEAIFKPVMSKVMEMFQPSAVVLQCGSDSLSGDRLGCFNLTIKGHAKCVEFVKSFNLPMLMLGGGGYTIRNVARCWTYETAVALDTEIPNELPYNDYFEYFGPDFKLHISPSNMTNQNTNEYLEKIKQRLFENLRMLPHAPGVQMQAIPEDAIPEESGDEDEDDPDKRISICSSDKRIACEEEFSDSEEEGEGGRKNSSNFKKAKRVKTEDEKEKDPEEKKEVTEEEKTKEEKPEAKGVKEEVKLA
T1 sequence (P15056 whole entry): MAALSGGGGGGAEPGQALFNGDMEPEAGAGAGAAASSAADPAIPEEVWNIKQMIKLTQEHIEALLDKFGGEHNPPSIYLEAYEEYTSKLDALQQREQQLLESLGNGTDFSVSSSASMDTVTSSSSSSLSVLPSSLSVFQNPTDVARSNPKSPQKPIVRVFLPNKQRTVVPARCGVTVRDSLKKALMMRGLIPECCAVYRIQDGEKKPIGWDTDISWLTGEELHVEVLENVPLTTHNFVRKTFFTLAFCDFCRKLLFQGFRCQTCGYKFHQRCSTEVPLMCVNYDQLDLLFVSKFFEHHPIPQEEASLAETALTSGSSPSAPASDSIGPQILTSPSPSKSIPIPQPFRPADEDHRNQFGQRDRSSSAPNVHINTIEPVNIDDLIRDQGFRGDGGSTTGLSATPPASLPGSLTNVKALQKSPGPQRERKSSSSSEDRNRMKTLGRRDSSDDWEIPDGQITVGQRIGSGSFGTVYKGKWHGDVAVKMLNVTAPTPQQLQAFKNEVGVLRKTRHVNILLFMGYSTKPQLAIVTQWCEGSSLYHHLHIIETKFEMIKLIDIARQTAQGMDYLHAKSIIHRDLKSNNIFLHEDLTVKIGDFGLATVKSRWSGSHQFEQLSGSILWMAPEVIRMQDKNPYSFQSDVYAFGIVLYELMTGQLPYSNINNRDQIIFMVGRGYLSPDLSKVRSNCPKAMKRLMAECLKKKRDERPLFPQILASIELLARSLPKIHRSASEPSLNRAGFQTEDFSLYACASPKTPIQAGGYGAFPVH

SMILES: CC(C)(C)c1nc(-c2cccc(NS(=O)(=O)c3c(F)cccc3F)c2F)c(-c2ccnc(NCCCCCCC(=O)NO)n2)s1 [14b, 7-{[4-(2-(Tert-Butyl)-4-(3-((2,6-Difluorophenyl)Sulfonamido)-2-Fluorophenyl)Thiazol-5-yl)Pyrimidin-2-yl]Amino}-N-Hydroxyheptanamide]
- IC50 (BRAF (wild-type) [1]): 4.07 nM
- selectivity of BRAF^V600E over wild-type BRAF (BRAF (wild-type) [2]): about 2 fold
- phosphorylation of ERK (P-ERK) (P-ERK in B16 cells): downregulate P-ERK; also recorded: p-ERK inhibition was observed
- IC50 (HCT116 cells): 1680 nM
- expression of BRAF [3]: did not affect the expression of BRAF itself
- acetylated histone H3 (Ac-histone H3) ([3]; 0.12-10 μM, 6 h): upregulated
- acetylated α-tubulin (Ac-α-tubulin) ([3]; 0.12-10 μM, 6 h): upregulated
- phosphorylation of ERK (p-ERK) ([3]; 0.12-10 μM, 6 h): significantly inhibited at the lowest concentration of 0.12 μM
- IC50 (HDAC1; Table 1, read-out: Enzymatic IC50 HDAC1): 494 nM
- IC50 (HDAC1; Table 3 isoform panel, read-out: Enzyme inhibition HDAC1 (Class I)): 493 nM
